Read-outs that look alike come from different tables or passages of the source.
Test system: NL-RLuc virus
Assay: Inhibition of HIV replication (NL-RLuc luciferase reporter virus in MT-2 cells)
Assay type: cell-based
Conditions: Human immunodeficiency virus 1, MT2, 120 h
Description: Inhibition of HIV replication: A recombinant NL-RLuc proviral clone was constructed in which a section of the nef gene form NL4-3 was replaced with the Renilla Luciferase gene. This virus is fully infectious and can undergo multiple cycles of replication in cell culture. In addition, the luciferous reporter provides a simple and easy method for quantitating the extent of virus growth and consequently, the antiviral activity of test compounds. The plasmid pNLRLuc contains the proviral NL-Rluc DNA cloned into pUC18 at the PvuII site. The NL-RLuc virus was prepared by transfection of 293T cells with the plasmid pNLRLuc. Transfections were performed using the LipofectAMINE PLUS kit form Invitrogen (Carlsbad, Calif.) according to the manufacturer and the virus generated was titered in MT-2 cells. For susceptibility analyses, the titrated virus was used to infect MT-2 cells in the presence of compound, and after 5 days of incubation, cells were processed and quantitated for virus growth by the amount of expressed luciferase. Assay media was RPMI 1640 supplemented with 10% heat inactivated fetal bovine serum (FBS), 100 units/ml penicillin G/100 units/ml streptomycin, 10 mM HEPES buffer pH 7.55 and 2 mM L-glutamine. The results form at least 2 experiments were used to calculate the EC50 values. Luciferase was quantitated using the Dual Luciferase kit form Promega (Madison, Wis.). Susceptibility of viruses to compounds was determined by incubation in the presence of serial dilutions of the compound. The 50% effective concentration (EC50) was calculated by using the exponential form of the median effect equation where (Fa)=1/[1+(ED50/drug conc.)^m](Johnson V A, Byington R T. Infectivity Assay. In Techniques in HIV Research. ed. Aldovini A, Walker B D. 71-76. New York: Stockton Press. 1990). Activity equal to A refers to a compound having an EC50≤100 nM, while B and C denote compounds having an EC50 between 100 nM and 1 uM (B) or >1 uM (C).

Cc1nc(COCc2cccc(Cl)c2)c(-c2ccc(OCCc3ccc(F)cc3)cc2)c(N2CCC(C)(C)CC2)c1[C@H](OC(C)(C)C)C(=O)O [Example 16, (S)-2-(tert-Butoxy)-2-(6-(((3-chlorobenzyl)oxy)methyl)-4-(4,4-dimethylpiperidin-1-yl)-5-(4-(4-fluorophenethoxy)phenyl)-2-methylpyridin-3-yl)acetic acid]
EC50 (read-out: Activity): < 0.1 µM

CSCc1nc(C)c([C@H](OC(C)(C)C)C(=O)O)c(N2CCC(C)(C)CC2)c1-c1ccc(OCCc2ccc(F)cc2)cc1 [Example 17, (S)-2-(tert-Butoxy)-2-(4-(4,4-dimethylpiperidin-1-yl)-5-(4-(4-fluorophenethoxy)phenyl)-2-methyl-6-((methylthio)methyl)pyridin-3-yl)acetic acid]
EC50 (read-out: Activity): < 0.1 µM

Cc1nc(CS(C)(=O)=O)c(-c2ccc(OCCc3ccc(F)cc3)cc2)c(N2CCC(C)(C)CC2)c1[C@H](OC(C)(C)C)C(=O)O [Example 18, (S)-2-(tert-Butoxy)-2-(4-(4,4-dimethylpiperidin-1-yl)-5-(4-(4-fluorophenethoxy)phenyl)-2-methyl-6-((methylsulfonyl)methyl)pyridin-3-yl)acetic acid]
EC50 (read-out: Activity): < 0.1 µM

Cc1nc(COCC2CCOCC2)c(-c2ccc(OCCc3ccc(F)cc3)cc2)c(N2CCC(C)(C)CC2)c1[C@H](OC(C)(C)C)C(=O)O [Example 19, (S)-2-(tert-Butoxy)-2-(4-(4,4-dimethylpiperidin-1-yl)-5-(4-(4-fluorophenethoxy)phenyl)-2-methyl-6-(((tetrahydro-2H-pyran-4-yl)methoxy)methyl)pyridin-3-yl)acetic acid]
EC50 (read-out: Activity): < 0.1 µM

Cc1nc(COCc2nc(C)c([C@H](OC(C)(C)C)C(=O)O)c(N3CCC(C)(C)CC3)c2-c2ccc(OCCc3ccc(F)cc3)cc2)sc1C [Example 20, (S)-2-(tert-Butoxy)-2-(4-(4,4-dimethylpiperidin-1-yl)-6-(((4,5-dimethylthiazol-2-yl)methoxy)methyl)-5-(4-(4-fluorophenethoxy)phenyl)-2-methylpyridin-3-yl)acetic acid]
EC50 (read-out: Activity): < 0.1 µM

Cc1nc(COCC2CN(C(=O)OC(C)(C)C)C2)c(-c2ccc(OCCc3ccc(F)cc3)cc2)c(N2CCC(C)(C)CC2)c1[C@H](OC(C)(C)C)C(=O)O [Example 21, (S)-2-(tert-Butoxy)-2-(6-(((1-(tert-butoxycarbonyl)azetidin-3-yl)methoxy)methyl)-4-(4,4-dimethylpiperidin-1-yl)-5-(4-(4-fluorophenethoxy)phenyl)-2-methylpyridin-3-yl)acetic acid]
EC50 (read-out: Activity): < 0.1 µM

Cc1nc(COCC2CNC2)c(-c2ccc(OCCc3ccc(F)cc3)cc2)c(N2CCC(C)(C)CC2)c1[C@H](OC(C)(C)C)C(=O)O [Example 22, (S)-2-(6-((Azetidin-3-ylmethoxy)methyl)-4-(4,4-dimethylpiperidin-1-yl)-5-(4-(4-fluorophenethoxy)phenyl)-2-methylpyridin-3-yl)-2-(tert-butoxy)acetic acid]
EC50 (read-out: Activity): < 0.1 µM

CCN(CC)CCOCc1nc(C)c([C@H](OC(C)(C)C)C(=O)O)c(N2CCC(C)(C)CC2)c1-c1ccc(OCCc2ccc(F)cc2)cc1 [Example 23, (S)-2-(tert-Butoxy)-2-(6-((2-(diethylamino)ethoxy)methyl)-4-(4,4-dimethylpiperidin-1-yl)-5-(4-(4-fluorophenethoxy)phenyl)-2-methylpyridin-3-yl)acetic acid]
EC50 (read-out: Activity): < 0.1 µM

Cc1nc(COCCN2CCOCC2)c(-c2ccc(OCCc3ccc(F)cc3)cc2)c(N2CCC(C)(C)CC2)c1[C@H](OC(C)(C)C)C(=O)O [Example 24, (S)-2-(tert-Butoxy)-2-(4-(4,4-dimethylpiperidin-1-yl)-5-(4-(4-fluorophenethoxy)phenyl)-2-methyl-6-((2-morpholinoethoxy)methyl)pyridin-3-yl)acetic acid]
EC50 (read-out: Activity): < 0.1 µM
EC50 (read-out: EC50 μM): 0.001 µM

Cc1cc(C)n(COCc2nc(C)c([C@H](OC(C)(C)C)C(=O)O)c(N3CCC(C)(C)CC3)c2-c2ccc(OCCc3ccc(F)cc3)cc2)n1 [Example 25, (S)-2-(tert-Butoxy)-2-(6-(((3,5-dimethyl-1H-pyrazol-1-yl)methoxy)methyl)-4-(4,4-dimethylpiperidin-1-yl)-5-(4-(4-fluorophenethoxy)phenyl)-2-methylpyridin-3-yl)acetic acid]
EC50 (read-out: Activity): < 0.1 µM

Cc1nc(COCN2CCCC2=O)c(-c2ccc(OCCc3ccc(F)cc3)cc2)c(N2CCC(C)(C)CC2)c1[C@H](OC(C)(C)C)C(=O)O [Example 26, (S)-2-(tert-Butoxy)-2-(4-(4,4-dimethylpiperidin-1-yl)-5-(4-(4-fluorophenethoxy)phenyl)-2-methyl-6-(((2-oxopyrrolidin-1-yl)methoxy)methyl)pyridin-3-yl)acetic acid]
EC50 (read-out: Activity): < 0.1 µM

Cc1nc(COCCN2CCCCC2)c(-c2ccc(OCCc3ccc(F)cc3)cc2)c(N2CCC(C)(C)CC2)c1[C@H](OC(C)(C)C)C(=O)O [Example 27, (S)-2-(tert-Butoxy)-2-(4-(4,4-dimethylpiperidin-1-yl)-5-(4-(4-fluorophenethoxy)phenyl)-2-methyl-6-((2-(piperidin-1-yl)ethoxy)methyl)pyridin-3-yl)acetic acid]
EC50 (read-out: Activity): < 0.1 µM

Cc1nc(COCCN2CCS(=O)(=O)CC2)c(-c2ccc(OCCc3ccc(F)cc3)cc2)c(N2CCC(C)(C)CC2)c1[C@H](OC(C)(C)C)C(=O)O [Example 28, (S)-2-(tert-Butoxy)-2-(4-(4,4-dimethylpiperidin-1-yl)-6-((2-(1,1-dioxidothiomorpholino)ethoxy)methyl)-5-(4-(4-fluorophenethoxy)phenyl)-2-methylpyridin-3-yl)acetic acid]
EC50 (read-out: Activity): < 0.1 µM

Cc1nc(COCC2CCC2)c(-c2ccc(OCCc3ccc(F)cc3)cc2)c(N2CCC(C)(C)CC2)c1[C@H](OC(C)(C)C)C(=O)O [Example 29, (S)-2-(tert-Butoxy)-2-(6-((cyclobutylmethoxy)methyl)-4-(4,4-dimethylpiperidin-1-yl)-5-(4-(4-fluorophenethoxy)phenyl)-2-methylpyridin-3-yl)acetic acid]
EC50 (read-out: Activity): < 0.1 µM

Cc1nc(COCC2CC(F)(F)C2)c(-c2ccc(OCCc3ccc(F)cc3)cc2)c(N2CCC(C)(C)CC2)c1[C@H](OC(C)(C)C)C(=O)O [Example 30, (S)-2-(tert-Butoxy)-2-(6-(((3,3-difluorocyclobutyl)methoxy)methyl)-4-(4,4-dimethylpiperidin-1-yl)-5-(4-(4-fluorophenethoxy)phenyl)-2-methylpyridin-3-yl)acetic acid]
EC50 (read-out: Activity): < 0.1 µM

Cc1ncn(Cc2nc(C)c([C@H](OC(C)(C)C)C(=O)O)c(N3CCC(C)(C)CC3)c2-c2ccc(OCCc3ccc(F)cc3)cc2)n1 [Example 31, (S)-2-(tert-Butoxy)-2-(4-(4,4-dimethylpiperidin-1-yl)-5-(4-(4-fluorophenethoxy)phenyl)-2-methyl-6-((3-methyl-1H-1,2,4-triazol-1-yl)methyl)pyridin-3-yl)acetic acid]
EC50 (read-out: Activity): < 0.1 µM
EC50 (read-out: EC50 μM): 0.009 µM

Cc1nc(Cn2ncnc2C)c(-c2ccc(OCCc3ccc(F)cc3)cc2)c(N2CCC(C)(C)CC2)c1[C@H](OC(C)(C)C)C(=O)O [Example 32, (S)-2-(tert-butoxy)-2-(4-(4,4-dimethylpiperidin-1-yl)-5-(4-(4-fluorophenethoxy)phenyl)-2-methyl-6-((5-methyl-1H-1,2,4-triazol-1-yl)methyl)pyridin-3-yl)acetic acid]
EC50 (read-out: Activity): < 0.1 µM

Cc1nc(Cn2cnnc2C)c(-c2ccc(OCCc3ccc(F)cc3)cc2)c(N2CCC(C)(C)CC2)c1[C@H](OC(C)(C)C)C(=O)O [Example 33, (S)-2-(tert-butoxy)-2-(4-(4,4-dimethylpiperidin-1-yl)-5-(4-(4-fluorophenethoxy)phenyl)-2-methyl-6-((3-methyl-4H-1,2,4-triazol-4-yl)methyl)pyridin-3-yl)acetic acid]
EC50 (read-out: Activity): < 0.1 µM

CCOCCOCc1nc(C)c([C@H](OC(C)(C)C)C(=O)O)c(N2CCC(C)(C)CC2)c1-c1ccccc1 [Example 34, (S)-2-(tert-Butoxy)-2-(4-(4,4-dimethylpiperidin-1-yl)-6-((2-ethoxyethoxy)methyl)-2-methyl-5-phenylpyridin-3-yl)acetic acid]
EC50 (read-out: Activity): < 0.1 µM

CCOCCOCc1cc(N2CCC(C)(C)CC2)c([C@H](OC(C)(C)C)C(=O)O)c(C)n1 [Example 35, (S)-2-(tert-butoxy)-2-(4-(4,4-dimethylpiperidin-1-yl)-6-((2-ethoxyethoxy)methyl)-2-methylpyridin-3-yl)acetic acid]
EC50 (read-out: Activity): 0.1 to 1 µM
EC50 (read-out: EC50 μM): 0.316 µM

CCOCCOCc1nc(C)c([C@H](OC(C)(C)C)C(=O)O)c(N2CCC(C)(C)CC2)c1C [Example 36, (S)-2-(tert-Butoxy)-2-(4-(4,4-dimethylpiperidin-1-yl)-6-((2-ethoxyethoxy)methyl)-2,5-dimethylpyridin-3-yl)acetic acid]
EC50 (read-out: Activity): < 0.1 µM

CCOCCOCc1nc(C)c([C@H](OC(C)(C)C)C(=O)O)c(N2CCC(C)(C)CC2)c1Br [Example 37, (S)-2-(5-bromo-4-(4,4-dimethylpiperidin-1-yl)-6-((2-ethoxyethoxy)methyl)-2-methylpyridin-3-yl)-2-(tert-butoxy)acetic acid]
EC50 (read-out: Activity): < 0.1 µM

Source: patent US10351546B2, “Pyridin-3-yl acetic acid derivatives as inhibitors of human immunodeficiency virus replication” (priority 2015, dated 2019)
